In paper PMC4604124, “In Vitro Characterization of the Pharmacological Properties of the Anti-Cancer Chelator, Bp4eT, and Its Phase I Metabolites” (PLoS ONE, 2015):
Values joined by “and” are separate entries in the source; they are usually repeats but may differ in a detail not shown here. Equal values may be shown once.

Legend:
[1] = Ascorbate oxidation assay (redox activity of iron complexes); assay type: biochemical; details: sheet IBE 3;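 as to %Fe 30min (ascorbate oxidation, Fe 100%): IBE 3 means excess free chelator over iron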;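 as to Change of absorbance, odečet 0 (time 0 subtracted), čas 10, průměr: IBE 3 means excess free chelator over 10 µM FeCl3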;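 as to Change of absorbance, odečet 0 (time 0 subtracted), čas 10: IBE 3 means excess free chelator over 10 µM FeCl3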
Protocol: The ascorbate oxidation assay was used to assess the redox activity of the iron complexes of the chelators using an established protocol. In brief, 100 μM ascorbic acid was prepared immediately prior to the experiment and incubated either alone or in the presence of 10 μM FeCl3 in a 50-fold molar excess (500 μM) of citrate and the chelators. Chelators were assayed at iron-binding equivalents (IBE) of 0.1 (excess of iron), 1 (fully coordinated iron—chelator complexes) and 3 (excess of free chelator). […] The decrease of absorbance between the two time points was calculated and expressed as a percentage of control without the chelator.

caspase 8 = assay: Caspase activity, luminescent kit, caspase 8; assay type: cell-based, human; details: for kaspáza 8, raw signal / kaspáza 8, signal / viabilita: individual experiments by date; for kaspáza 8, raw signal, průměry / kaspáza 8, % kontroly / kaspáza 8, signal / viabilita, průměry: mean; for kaspáza 8, % kontroly / kaspáza 8, signal / viabilita / kaspáza 8, signal / viabilita, průměry: normalised to viability
Protocol: To assess the effect of the compounds on caspase activity, MCF-7 cells were incubated with 100 nM Bp4eT or its metabolites for 3, 24 or 72 h/37°C in 96-well plates, as described above. The cells were then lysed by adding 100 μL of cold lysis buffer (100 mM HEPES, 10 mM CHAPS, 10 mM D-L-dithiothreitol, pH 7.4) to 100 μL of medium in each well. Lysates were immediately frozen at -80°C. Thawed lysates were used to assess caspase activity using luminescent kits for caspases 3/7, 8 and 9 (Promega, Madison, WI, USA). The luminescence was measured using the Tecan Infinite 200M plate reader. Caspase activity in the experimental groups was corrected according to the cellular viability of each group and expressed as a percentage of activity of the untreated control (100%).

[2] = system: HCT116 human colorectal carcinoma cells; assay: MTT cytotoxicity assay, HCT116 cells; assay type: cell-based; details: for IC50: MTT
Protocol: For cytotoxicity experiments, cancer cells were seeded at a density of 5,000 (MCF-7), 10,000 (HL-60) or 2,000 cells/well (HCT116 and A549) in 96-well plates (TPP) for 24 h/37°C prior to the addition of examined agents. The non-cancerous cells, 3T3 and H9c2 cells, were cultured for 24 h/37°C in 96-well plates at a density of 10,000 cells/well, the medium was then changed to serum- and pyruvate-free DMEM (Sigma-Aldrich) and incubated with the cells for another 24 h/37°C. The cytotoxic effects of Bp4eT and its metabolites were studied at different concentrations after a 72 h/37°C incubation. In order to aid the dissolution of the lipophilic ligands, 0.1% dimethyl sulfoxide (v/v) (DMSO; Sigma-Aldrich) was present in the culture medium of all groups. At this concentration, DMSO had no effect on cellular proliferation or viability.
The viability of cells were determined using an MTT assay (Sigma-Aldrich) according to previously established methods. The optical density of soluble MTT was measured at λ = 570 nm, subtracting the λ = 690 nm background using a Tecan Infinite 200M plate reader (Tecan Group, Männedorf, Switzerland). The viability or proliferation of experimental groups was expressed as a percentage of the untreated controls (100%).
SigmaStat for Windows 3.5 (Systat Software, San Jose, CA, USA) statistical software package was utilized to analyze results. The data are expressed as the mean ± SD of a given number of experiments. Statistical significance was determined using a one-way ANOVA with a Bonferroni post-hoc test or Student’s t-test. The results were considered to be statistically significant when p < 0.05. The IC50 values were calculated using CalcuSyn 2.0 software (Biosoft, Cambridge, UK). Cell cycle analysis was evaluated using MultiCycle AV Software (Phoenix Flow Systems, San Diego, CA, USA).

CCNC(=O)NN=C(c1ccccc1)c1ccccn1 [E-Bp4eS, 2-benzoylpyridine 4-ethylsemicarbazone]
%Fe 30min (ascorbate oxidation, Fe 100%) ([1]; 30min, Fe alone = 100%, single replicates): 124.2% and 115.8% and 108.1% and 126.9% and 132.9% and 126% and 114.7% and 109.6% and 103.1% | Change of absorbance, odečet 0 (time 0 subtracted), čas 10, průměr ([1]; time 10 minus time 0, mean (průměr)): -0.04086 | Change of absorbance, odečet 0 (time 0 subtracted), čas 10 ([1]; time 10 minus time 0, single replicates): -0.04474 and -0.03234 and -0.03864 and -0.04417 and -0.05097 and -0.04457 and -0.03984 and -0.03894 and -0.03354 | Change of absorbance, odečet 0 (time 0 subtracted), čas 20, průměr ([1]; time 20 minus time 0, mean (průměr)): -0.076 | Change of absorbance, odečet 0 (time 0 subtracted), čas 20 ([1]; time 20 minus time 0, single replicates): -0.0807 and -0.0703 and -0.071 and -0.08341 and -0.08461 and -0.08331 and -0.07425 and -0.07045 and -0.06595 | Change of absorbance, odečet 0 (time 0 subtracted), čas 30, průměr ([1]; time 30 minus time 0, mean (průměr)): -0.109 | Change of absorbance, odečet 0 (time 0 subtracted), čas 30 ([1]; time 30 minus time 0, single replicates): -0.1153 and -0.1075 and -0.1003 (2×) and -0.1178 and -0.1233 and -0.1169 and -0.105 and -0.09439 | kaspáza 8, raw signal (caspase 8; 3 hodiny): 1819 and 1041 and 1191.5 and 952.5 | kaspáza 8, raw signal, průměry (caspase 8; 3 hodiny): 1251 | kaspáza 8, % kontroly (caspase 8; 3 hodiny): 93.96 % kontroly | kaspáza 8, signal / viabilita (caspase 8; 3 hodiny): 18.5259 and 10.6022 and 12.135 and 9.701 | kaspáza 8, signal / viabilita, průměry (caspase 8; 3 hodiny): 12.741 | kaspáza 8, raw signal (caspase 8; 24 hodin): 1530 and 1548 and 1983.5 and 1503 | kaspáza 8, raw signal, průměry (caspase 8; 24 hodin): 1641.12 | kaspáza 8, % kontroly (caspase 8; 24 hodin): 104.70 % kontroly | kaspáza 8, signal / viabilita (caspase 8; 24 hodin): 15.3819 and 15.5629 and 19.9412 and 15.1105 | kaspáza 8, signal / viabilita, průměry (caspase 8; 24 hodin): 16.4991 | kaspáza 8, raw signal (caspase 8; 72 hodin): 6786.5 and 6488.5 and 6545 and 6983 | kaspáza 8, raw signal, průměry (caspase 8; 72 hodin): 6700.75 | kaspáza 8, % kontroly (caspase 8; 72 hodin): 98.51 % kontroly | kaspáza 8, signal / viabilita (caspase 8; 72 hodin): 69.3845 and 66.3378 and 66.9154 and 71.3935 | kaspáza 8, signal / viabilita, průměry (caspase 8; 72 hodin): 68.5078 | Therapeutic index, IC50 non-cancerous cells / IC50 neoplastic cells ([2]; 3T3/HCT116): >10.5 | Therapeutic index, IC50 non-cancerous cells / IC50 neoplastic cells ([2]; H9c2/HCT116): 9.3 | IC50 ([2]; HCT116, 72 h/37°C, mean ± SD, n ≥ 4): 95.4 ± 10.4 µM | MTT, relative to control (0 = 100) ([2]; HCT116, 2 000 b/j, 1 μM, průměr (mean), sheet E-Bp4eS): 93.86 | MTT, relative to control (0 = 100) ([2]; HCT116, 2 000 b/j, 1 μM, single experiment (date), sheet E-Bp4eS): 90.5387 and 95.2075 and 90.3432 and 99.3608 | MTT, relative to control (0 = 100) ([2]; HCT116, 2 000 b/j, 3 μM, průměr (mean), sheet E-Bp4eS): 91.05 | MTT, relative to control (0 = 100) ([2]; HCT116, 2 000 b/j, 3 μM, single experiment (date), sheet E-Bp4eS): 88.1499 and 86.4536 and 88.7606 and 100.823 | MTT, relative to control (0 = 100) ([2]; HCT116, 2 000 b/j, 10 μM, průměr (mean), sheet E-Bp4eS): 89.35 | MTT, relative to control (0 = 100) ([2]; HCT116, 2 000 b/j, 10 μM, single experiment (date), sheet E-Bp4eS): 79.5919 and 93.1715 and 88.2723 and 96.3507 | MTT, relative to control (0 = 100) ([2]; HCT116, 2 000 b/j, 30 μM, průměr (mean), sheet E-Bp4eS): 86.47 | MTT, relative to control (0 = 100) ([2]; HCT116, 2 000 b/j, 30 μM, single experiment (date), sheet E-Bp4eS): 82.3738 and 90.947 and 82.3476 and 90.2168 | MTT, relative to control (0 = 100) ([2]; HCT116, 2 000 b/j, 100 μM, průměr (mean), sheet E-Bp4eS): 59.19 | MTT, relative to control (0 = 100) ([2]; HCT116, 2 000 b/j, 100 μM, single experiment (date), sheet E-Bp4eS): 61.842 and 75.8026 and 45.1438 and 53.9757 | MTT, relative to control (0 = 100) ([2]; HCT116, 2 000 b/j, 300 μM, průměr (mean), sheet E-Bp4eS): 9.27 | MTT, relative to control (0 = 100) ([2]; HCT116, 2 000 b/j, 1000 μM, průměr (mean), sheet E-Bp4eS): 7.18 | MTT, relative to control (0 = 100) ([2]; HCT116, 2 000 b/j, 1000 μM, single experiment (date), sheet E-Bp4eS): 7.957 and 7.9705 and 6.656 and 6.131 | IC50 ([2]; HCT116, 2 000 b/j, single experiment (date), sheet E-Bp4eS): 108 µM and 85.2 µM and 99.1 µM | IC50 ([2]; Homo sapiens, HCT-116, HCT116, 2 000 b/j, průměr (mean), sheet E-Bp4eS): 95.4 µM | IC50 ([2]; Homo sapiens, HCT-116, HCT116, 2 000 b/j, single experiment (date), sheet E-Bp4eS): 89.2 µM
